Source: patent publication US20150307938A1, “METHOD TO IDENTIFY A NOVEL CLASS OF IMMUNOLOGIC ADJUVANTS” (Lancell, L.L.C., priority 2011, published 2015)

Test system: skin
Experiment: Affymetrix microarray of skin, DBP-4 hr and analogs vs. untreated; gene selection by log-2 fold change, Wilcoxon, Kendall tau (Tables 8, 9)
Type: in vivo, mouse
Details: for Kendall: Kendall tau coefficient

In the case of CCCCOC(=O)c1ccccc1C(=O)OCCCC [DBP, dibutylphthalate], the Wilcoxon (2310016C08Rik NM_001190461_at, DBP-4 hr vs. untreated) is reported as “Yes”, the Kendall (2310016C08Rik NM_001190461_at) is reported as “No” and the Wilcoxon (Adam8 NM_007403_at, DBP-4 hr vs. untreated) is reported as “Yes”. The Kendall (Adam8 NM_007403_at) was “Yes”, the Wilcoxon (Atf3 NM_007498_at, DBP-4 hr vs. untreated) was “Yes” and the Kendall (Atf3 NM_007498_at) was “No”. For the same compound, the Wilcoxon (Birc3 NM_007464_at, DBP-4 hr vs. untreated) was “No”, the Kendall (Birc3 NM_007464_at) was “No” and the Wilcoxon (Btg2 NM_007570_at, DBP-4 hr vs. untreated) was “Yes”. For the same compound, the Kendall (Btg2 NM_007570_at) was “Yes”, the Wilcoxon (Casp4 NM_007609_at, DBP-4 hr vs. untreated) was “Yes” and the Kendall (Casp4 NM_007609_at) was “No”. The Wilcoxon (Cd44 NM_001039150_at, DBP-4 hr vs. untreated) was “No”, the Kendall (Cd44 NM_001039150_at) was “No” and the Wilcoxon (Cd44 NM_001039151_at, DBP-4 hr vs. untreated) was “No”. For the same compound, the Kendall (Cd44 NM_001039151_at) was “No”, the Wilcoxon (Cebpd NM_007679_at, DBP-4 hr vs. untreated) was “Yes” and the Kendall (Cebpd NM_007679_at) was “No”. The Wilcoxon (Csf2rb NM_007780_at, DBP-4 hr vs. untreated) was “No”, the Kendall (Csf2rb NM_007780_at) was “Yes” and the Wilcoxon (Cxcl1 NM_008176_at, DBP-4 hr vs. untreated) was “Yes”. For the same compound, the Kendall (Cxcl1 NM_008176_at) was “No”, the “1600029D21Rik (NM_029639_at) Wilcoxon” value (DBP-4 hr vs. untreated) was “Yes” and the “2010002N04Rik (NM_134133_at) Wilcoxon” value (DBP-4 hr vs. untreated) was “Yes”. For the same compound, the “2310016C08Rik (NM_023516_at) Wilcoxon” value (DBP-4 hr vs. untreated) was “Yes”, the “1810011010Rik (NM_026931_at) Wilcoxon” value (DBP-4 hr vs. untreated) was “Yes” and the “Abcc3 (NM_029600_at) Wilcoxon” value (DBP-4 hr vs. untreated) was “No”. For the same compound, the “Acot5 (NM_145444_at) Wilcoxon” value (DBP-4 hr vs. untreated) was “Yes”, the “Adamts4 (NM_172845_at) Wilcoxon” value (DBP-4 hr vs. untreated) was “Yes” and the “Akap12 (NM_031185_at) Wilcoxon” value (DBP-4 hr vs. untreated) was “No”. For the same compound, the “Angptl4 (NM_020581_at) Wilcoxon” value (DBP-4 hr vs. untreated) was “Yes”, the “Arc (NM_018790_at) Wilcoxon” value (DBP-4 hr vs. untreated) was “Yes” and the “Arid5a (NM_145996_at) Wilcoxon” value (DBP-4 hr vs. untreated) was “Yes”. The “Arid5a (NR_033310_at) Wilcoxon” value (DBP-4 hr vs. untreated) was “Yes”, the “Bcar3 (NM_013867_at) Wilcoxon” value (DBP-4 hr vs. untreated) was “No” and the “Bcl3 (NM_033601_at) Wilcoxon” value (DBP-4 hr vs. untreated) was “Yes”. For the same compound, the “Bhlhe40 (NM_011498_at) Wilcoxon” value (DBP-4 hr vs. untreated) was “No”, the “Calcb (NM_054084_at) Wilcoxon” value (DBP-4 hr vs. untreated) was “No” and the “Ccl1 (NM_011329_at) Wilcoxon” value (DBP-4 hr vs. untreated) was “Yes”. For the same compound, the “Ccl2 (NM_011333_at) Wilcoxon” value (DBP-4 hr vs. untreated) was “Yes”, the “Ccl3 (NM_011337_at) Wilcoxon” value (DBP-4 hr vs. untreated) was “Yes” and the “Ccl7 (NM_013654_at) Wilcoxon” value (DBP-4 hr vs. untreated) was “Yes”. The “Ccl9 (NM_011338_at) Wilcoxon” value (DBP-4 hr vs. untreated) was “Yes”, the “Ccl12 (NM_011331_at) Wilcoxon” value (DBP-4 hr vs. untreated) was “Yes” and the “Ccl17 (NM_011332_at) Wilcoxon” value (DBP-4 hr vs. untreated) was “Yes”. The “Ccl20 (NM_016960_at) Wilcoxon” value (DBP-4 hr vs. untreated) was “Yes”, the “Cd86 (NM_019388_at) Wilcoxon” value (DBP-4 hr vs. untreated) was “Yes” and the “Cd207 (NM_144943_at) Wilcoxon” value (DBP-4 hr vs. untreated) was “Yes”. The “Clec4e (NM_019948_at) Wilcoxon” value (DBP-4 hr vs. untreated) was “Yes”, the “Clec7a (NM_020008_at) Wilcoxon” value (DBP-4 hr vs. untreated) was “Yes” and the “Clec4d (NM_010819_at) Wilcoxon” value (DBP-4 hr vs. untreated) was “Yes”. For the same compound, the “Clic4 (NM_013885_at) Wilcoxon” value (DBP-4 hr vs. untreated) was “No”, the “Crem (NM_013498_at) Wilcoxon” value (DBP-4 hr vs. untreated) was “Yes” and the “Cxcl16 (NM_023158_at) Wilcoxon” value (DBP-4 hr vs. untreated) was “Yes”. For the same compound, the “Cyr61 (NM_010516_at) Wilcoxon” value (DBP-4 hr vs. untreated) was “Yes”, the “Cytip (NM_139200_at) Wilcoxon” value (DBP-4 hr vs. untreated) was “No” and the “Dusp6 (NM_026268_at) Wilcoxon” value (DBP-4 hr vs. untreated) was “Yes”. The “Dusp7 (NM_153459_at) Wilcoxon” value (DBP-4 hr vs. untreated) was “No”, the “Epgn (NM_053087_at) Wilcoxon” value (DBP-4 hr vs. untreated) was “Yes” and the “Gzmb (NM_013542_at) Wilcoxon” value (DBP-4 hr vs. untreated) was “Yes”. The “Havcr2 (NM_134250_at) Wilcoxon” value (DBP-4 hr vs. untreated) was “Yes”, the “Ier2 (NM_010499_at) Wilcoxon” value (DBP-4 hr vs. untreated) was “No” and the “Ier3 (NM_133662_at) Wilcoxon” value (DBP-4 hr vs. untreated) was “Yes”. The “Ifi202b (NM_011940_at) Wilcoxon” value (DBP-4 hr vs. untreated) was “Yes”, the “Il1f6 (NM_019450_at) Wilcoxon” value (DBP-4 hr vs. untreated) was “Yes” and the “Il6 (NM_031168_at) Wilcoxon” value (DBP-4 hr vs. untreated) was “Yes”. For the same compound, the “Il20 (NM_021380_at) Wilcoxon” value (DBP-4 hr vs. untreated) was “Yes”, the “Jdp2 (NM_030887_at) Wilcoxon” value (DBP-4 hr vs. untreated) was “No” and the “Jun (NM_010591_at) Wilcoxon” value (DBP-4 hr vs. untreated) was “No”. For the same compound, the “Klk6 (NM_011177_at) Wilcoxon” value (DBP-4 hr vs. untreated) was “Yes”, the “Klrb1b (NM_030599_at) Wilcoxon” value (DBP-4 hr vs. untreated) was “No” and the “Krt25 (NM_133730_at) Wilcoxon” value (DBP-4 hr vs. untreated) was “Yes”. The “Krt27 (NM_010666_at) Wilcoxon” value (DBP-4 hr vs. untreated) was “Yes”, the “Krt35 (NM_016880_at) Wilcoxon” value (DBP-4 hr vs. untreated) was “No” and the “Krt71 (NM_019956_at) Wilcoxon” value (DBP-4 hr vs. untreated) was “Yes”. For the same compound, the “Krtap4-16 (NM_001013823_at) Wilcoxon” value (DBP-4 hr vs. untreated) was “Yes”, the “LOC100044068 (XM_001473873_at) Wilcoxon” value (DBP-4 hr vs. untreated) was “Yes” and the “LOC100504977 (XM_003085794_at) Wilcoxon” value (DBP-4 hr vs. untreated) was “Yes”. For the same compound, the “Maff (NM_010755_at) Wilcoxon” value (DBP-4 hr vs. untreated) was “Yes”, the “Map3k6 (NM_016693_at) Wilcoxon” value (DBP-4 hr vs. untreated) was “No” and the “Mcoln2 (NM_026656_at) Wilcoxon” value (DBP-4 hr vs. untreated) was “Yes”. For the same compound, the “Mt1 (NM_013602_at) Wilcoxon” value (DBP-4 hr vs. untreated) was “No”, the “NA (AFFX-18SRNAMur/X00686_3_at) Wilcoxon” value (DBP-4 hr vs. untreated) was “Yes” and the “NA (AFFX-18SRNAMur/X00686_5_at) Wilcoxon” value (DBP-4 hr vs. untreated) was “Yes”. For the same compound, the “NA (AFFX-18SRNAMur/X00686_M_at) Wilcoxon” value (DBP-4 hr vs. untreated) was “Yes”, the “NA (AFFX-BioB-3_at) Wilcoxon” value (DBP-4 hr vs. untreated) was “Yes” and the “NA (AFFX-BioB-5_at) Wilcoxon” value (DBP-4 hr vs. untreated) was “Yes”. For the same compound, the “NA (AFFX-BioB-M_at) Wilcoxon” value (DBP-4 hr vs. untreated) was “Yes”.
